From ChEMBL document CHEMBL5724914, “Linking interpersonal differences in gut microbiota composition and drug biotransformation activity” (2024)

Legend:
[1] = (§1) The drug is tested on Z-025 corresponding to rabbit gut metagenome with ENA study accession number: PRJEB37062 and ENA sample accession number: ERS12561824 for biotransformation under anaerobic condition. The drug concentrations were measured over 9 timepoints collected between 0 and 24 hours of incubation by liquid-chromatography-coupled mass spectrometry (LC–MS); conditions: 2 µM
[2] = as §1, with “Z-022” for “Z-025”, “mouse” for “rabbit”, “ERS12561821” for “ERS12561824”; conditions: 2 µM
[3] = as §1, with “Z-016” for “Z-025”, “mouse” for “rabbit”, “ERS12561815” for “ERS12561824”; conditions: 2 µM
[4] = as §1, with “Z-008” for “Z-025”, “to” for “to rabbit gut”, “ERS12561808” for “ERS12561824”; conditions: 2 µM
[5] = as §1, with “Z-004” for “Z-025”, “to” for “to rabbit gut”, “ERS12561804” for “ERS12561824”; conditions: 2 µM
[6] = as §1, with “Z-003” for “Z-025”, “pig” for “rabbit”, “ERS12561803” for “ERS12561824”; conditions: 2 µM
[7] = as §1, with “WLS-350” for “Z-025”, “human” for “rabbit”, “ERS12561789” for “ERS12561824”; conditions: 2 µM
[8] = as §1, with “WLS-240” for “Z-025”, “human” for “rabbit”, “ERS12561773” for “ERS12561824”; conditions: 2 µM
[9] = as §1, with “WLS-077” for “Z-025”, “human” for “rabbit”, “ERS12561750” for “ERS12561824”; conditions: 2 µM
[10] = as §1, with “WLS-038” for “Z-025”, “human” for “rabbit”, “ERS12561745” for “ERS12561824”; conditions: 2 µM
[11] = human gut metagenome, 24 h, 2 µM
[12] = human gut metagenome, 24 h, 2 µM; remark: listed apart in the source
[13] = human gut metagenome, 24 h, 2 µM; remark: listed apart in the source
[14] = human gut metagenome, 24 h, 2 µM; remark: listed apart in the source
[15] = human gut metagenome, 24 h, 2 µM; remark: listed apart in the source
[16] = human gut metagenome, 24 h, 2 µM; remark: listed apart in the source
[17] = human gut metagenome, 24 h, 2 µM; remark: listed apart in the source
[18] = human gut metagenome, 24 h, 2 µM; remark: listed apart in the source
[19] = human gut metagenome, 24 h, 2 µM; remark: listed apart in the source
[20] = human gut metagenome, 24 h, 2 µM; remark: listed apart in the source
Further: call rule not given here.

## O=C(NC(Cc1cc(=O)[nH]c2ccccc12)C(=O)O)c1ccc(Cl)cc1 (stereo not given) [REBAMIPIDE]
[1]
  Bacterial Biotransformation: Compound NOT metabolized
[2]
  Bacterial Biotransformation: Compound NOT metabolized
[3]
  Bacterial Biotransformation: Compound NOT metabolized
[4]
  Bacterial Biotransformation: Compound NOT metabolized
[5]
  Bacterial Biotransformation: Compound NOT metabolized
[6]
  Bacterial Biotransformation: Compound NOT metabolized
[7]
  Bacterial Biotransformation: Compound NOT metabolized
[8]
  Bacterial Biotransformation: Compound NOT metabolized
[9]
  Bacterial Biotransformation: Compound NOT metabolized
[10]
  Bacterial Biotransformation: Compound NOT metabolized
[11]
  Bacterial Biotransformation: Compound NOT metabolized
[12]
  Bacterial Biotransformation: Compound NOT metabolized
[13]
  Bacterial Biotransformation: Compound NOT metabolized
[14]
  Bacterial Biotransformation: Compound NOT metabolized
[15]
  Bacterial Biotransformation: Compound NOT metabolized
[16]
  Bacterial Biotransformation: Compound NOT metabolized
[17]
  Bacterial Biotransformation: Compound NOT metabolized
[18]
  Bacterial Biotransformation: Compound NOT metabolized
[19]
  Bacterial Biotransformation: Compound NOT metabolized
[20]
  Bacterial Biotransformation: Compound NOT metabolized

## CCOc1cc(CC(=O)N[C@@H](CC(C)C)c2ccccc2N2CCCCC2)ccc1C(=O)O [REPAGLINIDE]
[1]
  Bacterial Biotransformation: Compound NOT metabolized
[2]
  Bacterial Biotransformation: Compound metabolized
[3]
  Bacterial Biotransformation: Compound metabolized
[4]
  Bacterial Biotransformation: Compound metabolized
[5]
  Bacterial Biotransformation: Compound metabolized
[6]
  Bacterial Biotransformation: Compound metabolized
[7]
  Bacterial Biotransformation: Compound metabolized
[8]
  Bacterial Biotransformation: Compound metabolized
[9]
  Bacterial Biotransformation: Compound metabolized
[10]
  Bacterial Biotransformation: Compound metabolized
[11]
  Bacterial Biotransformation: Compound metabolized
[12]
  Bacterial Biotransformation: Compound metabolized
[13]
  Bacterial Biotransformation: Compound metabolized
[14]
  Bacterial Biotransformation: Compound metabolized
[15]
  Bacterial Biotransformation: Compound metabolized
[16]
  Bacterial Biotransformation: Compound metabolized
[17]
  Bacterial Biotransformation: Compound metabolized
[18]
  Bacterial Biotransformation: Compound metabolized
[19]
  Bacterial Biotransformation: Compound metabolized
[20]
  Bacterial Biotransformation: Compound NOT metabolized

## CC(N)C12CC3CC(CC(C3)C1)C2 (stereo not given) [RIMANTADINE]
[1]
  Bacterial Biotransformation: Compound NOT metabolized
[2]
  Bacterial Biotransformation: Compound metabolized
[3]
  Bacterial Biotransformation: Compound NOT metabolized
[4]
  Bacterial Biotransformation: Compound NOT metabolized
[5]
  Bacterial Biotransformation: Compound NOT metabolized
[6]
  Bacterial Biotransformation: Compound NOT metabolized
[7]
  Bacterial Biotransformation: Compound NOT metabolized
[8]
  Bacterial Biotransformation: Compound NOT metabolized
[9]
  Bacterial Biotransformation: Compound NOT metabolized
[10]
  Bacterial Biotransformation: Compound NOT metabolized
[11]
  Bacterial Biotransformation: Compound NOT metabolized
[12]
  Bacterial Biotransformation: Compound NOT metabolized
[13]
  Bacterial Biotransformation: Compound NOT metabolized
[14]
  Bacterial Biotransformation: Compound NOT metabolized
[15]
  Bacterial Biotransformation: Compound NOT metabolized
[16]
  Bacterial Biotransformation: Compound NOT metabolized
[17]
  Bacterial Biotransformation: Compound NOT metabolized
[18]
  Bacterial Biotransformation: Compound NOT metabolized
[19]
  Bacterial Biotransformation: Compound NOT metabolized
[20]
  Bacterial Biotransformation: Compound NOT metabolized

## CCN(C)C(=O)Oc1cccc([C@H](C)N(C)C)c1.O=C(O)C(O)C(O)C(=O)O [RIVASTIGMINE TARTRATE]
[1]
  Bacterial Biotransformation: Compound NOT metabolized
[2]
  Bacterial Biotransformation: Compound NOT metabolized
[3]
  Bacterial Biotransformation: Compound NOT metabolized
[4]
  Bacterial Biotransformation: Compound NOT metabolized
[5]
  Bacterial Biotransformation: Compound NOT metabolized
[6]
  Bacterial Biotransformation: Compound NOT metabolized
[7]
  Bacterial Biotransformation: Compound NOT metabolized
[8]
  Bacterial Biotransformation: Compound metabolized
[9]
  Bacterial Biotransformation: Compound NOT metabolized
[10]
  Bacterial Biotransformation: Compound metabolized
[11]
  Bacterial Biotransformation: Compound NOT metabolized
[12]
  Bacterial Biotransformation: Compound NOT metabolized
[13]
  Bacterial Biotransformation: Compound NOT metabolized
[14]
  Bacterial Biotransformation: Compound NOT metabolized
[15]
  Bacterial Biotransformation: Compound NOT metabolized
[16]
  Bacterial Biotransformation: Compound NOT metabolized
[17]
  Bacterial Biotransformation: Compound NOT metabolized
[18]
  Bacterial Biotransformation: Compound NOT metabolized
[19]
  Bacterial Biotransformation: Compound NOT metabolized
[20]
  Bacterial Biotransformation: Compound metabolized

## CCCN(CCC)CCc1cccc2c1CC(=O)N2 [ROPINIROLE]
[1]
  Bacterial Biotransformation: Compound NOT metabolized
[2]
  Bacterial Biotransformation: Compound NOT metabolized
[3]
  Bacterial Biotransformation: Compound NOT metabolized
[4]
  Bacterial Biotransformation: Compound NOT metabolized
[5]
  Bacterial Biotransformation: Compound NOT metabolized
[6]
  Bacterial Biotransformation: Compound metabolized
[7]
  Bacterial Biotransformation: Compound NOT metabolized
[8]
  Bacterial Biotransformation: Compound NOT metabolized
[9]
  Bacterial Biotransformation: Compound NOT metabolized
[10]
  Bacterial Biotransformation: Compound NOT metabolized
[11]
  Bacterial Biotransformation: Compound NOT metabolized
[12]
  Bacterial Biotransformation: Compound NOT metabolized
[13]
  Bacterial Biotransformation: Compound NOT metabolized
[14]
  Bacterial Biotransformation: Compound NOT metabolized
[15]
  Bacterial Biotransformation: Compound metabolized
[16]
  Bacterial Biotransformation: Compound metabolized
[17]
  Bacterial Biotransformation: Compound NOT metabolized
[18]
  Bacterial Biotransformation: Compound NOT metabolized
[19]
  Bacterial Biotransformation: Compound NOT metabolized
[20]
  Bacterial Biotransformation: Compound NOT metabolized

## CC(=O)OCC(=O)NCCCOc1cccc(CN2CCCCC2)c1 [ROXATIDINE ACETATE]
[1]
  Bacterial Biotransformation: Compound metabolized
[2]
  Bacterial Biotransformation: Compound metabolized
[3]
  Bacterial Biotransformation: Compound metabolized
[4]
  Bacterial Biotransformation: Compound metabolized
[5]
  Bacterial Biotransformation: Compound metabolized
[6]
  Bacterial Biotransformation: Compound metabolized
[7]
  Bacterial Biotransformation: Compound metabolized
[8]
  Bacterial Biotransformation: Compound metabolized
[9]
  Bacterial Biotransformation: Compound metabolized
[10]
  Bacterial Biotransformation: Compound metabolized
[11]
  Bacterial Biotransformation: Compound metabolized
[12]
  Bacterial Biotransformation: Compound metabolized
[13]
  Bacterial Biotransformation: Compound metabolized
[14]
  Bacterial Biotransformation: Compound metabolized
[15]
  Bacterial Biotransformation: Compound metabolized
[16]
  Bacterial Biotransformation: Compound metabolized
[17]
  Bacterial Biotransformation: Compound metabolized
[18]
  Bacterial Biotransformation: Compound metabolized
[19]
  Bacterial Biotransformation: Compound metabolized
[20]
  Bacterial Biotransformation: Compound metabolized

## CN[C@H]1CC[C@@H](c2ccc(Cl)c(Cl)c2)c2ccccc21 [SERTRALINE]
[1]
  Bacterial Biotransformation: Compound metabolized
[2]
  Bacterial Biotransformation: Compound NOT metabolized
[3]
  Bacterial Biotransformation: Compound NOT metabolized
[4]
  Bacterial Biotransformation: Compound NOT metabolized
[5]
  Bacterial Biotransformation: Compound metabolized
[6]
  Bacterial Biotransformation: Compound metabolized
[7]
  Bacterial Biotransformation: Compound NOT metabolized
[8]
  Bacterial Biotransformation: Compound NOT metabolized
[9]
  Bacterial Biotransformation: Compound metabolized
[10]
  Bacterial Biotransformation: Compound metabolized
[11]
  Bacterial Biotransformation: Compound metabolized
[12]
  Bacterial Biotransformation: Compound metabolized
[13]
  Bacterial Biotransformation: Compound metabolized
[14]
  Bacterial Biotransformation: Compound NOT metabolized
[15]
  Bacterial Biotransformation: Compound NOT metabolized
[16]
  Bacterial Biotransformation: Compound metabolized
[17]
  Bacterial Biotransformation: Compound NOT metabolized
[18]
  Bacterial Biotransformation: Compound metabolized
[19]
  Bacterial Biotransformation: Compound NOT metabolized
[20]
  Bacterial Biotransformation: Compound NOT metabolized

## O=C(O)CCC(=O)O.O=C(O[C@H]1CN2CCC1CC2)N1CCc2ccccc2[C@@H]1c1ccccc1 [SOLIFENACIN SUCCINATE]
[1]
  Bacterial Biotransformation: Compound metabolized
[2]
  Bacterial Biotransformation: Compound metabolized
[3]
  Bacterial Biotransformation: Compound NOT metabolized
[4]
  Bacterial Biotransformation: Compound NOT metabolized
[5]
  Bacterial Biotransformation: Compound metabolized
[6]
  Bacterial Biotransformation: Compound metabolized
[7]
  Bacterial Biotransformation: Compound metabolized
[8]
  Bacterial Biotransformation: Compound metabolized
[9]
  Bacterial Biotransformation: Compound NOT metabolized
[10]
  Bacterial Biotransformation: Compound metabolized
[11]
  Bacterial Biotransformation: Compound metabolized
[12]
  Bacterial Biotransformation: Compound NOT metabolized
[13]
  Bacterial Biotransformation: Compound metabolized
[14]
  Bacterial Biotransformation: Compound NOT metabolized
[15]
  Bacterial Biotransformation: Compound NOT metabolized
[16]
  Bacterial Biotransformation: Compound metabolized
[17]
  Bacterial Biotransformation: Compound metabolized
[18]
  Bacterial Biotransformation: Compound metabolized
[19]
  Bacterial Biotransformation: Compound metabolized
[20]
  Bacterial Biotransformation: Compound metabolized
